Test results as given in patent publication US9359323B2, “Compound” (priority 2010, dated 2016).

What was measured:
[1] = system: mouse β-cell insulinoma line MIN-6; assay: tert-butyl hydroperoxide (tBHP) challenge of MIN-6 cells, MTT viability assay; type: cell-based; details: compound added 30 minutes prior to tBHP, FIG. 3
Method: The mouse β-cell insulinoma line MIN-6 was maintained in high glucose DMEM supplemented with 15% heat-inactivated foetal bovine serum (FBS) and 70 μM 2-mercaptoethanol.
(§1) MIN-6 cells were plated into a 96-well tissue culture plate at a density of 2.0×10^4 cells per well. The cells were cultured at 37° C. in an atmosphere of 5% CO2 for 20-24 hours before the addition of AO3003, 30 minutes prior to the onset of the tert-butyl hydroperoxide (tBHP) challenge. The cells were incubated with tBHP for 30 minutes at 37° C. (5% CO2) before 20 μl 5 mg/ml 3-(4,5-Dimethyl-2-thiazolyl)-2,5-diphenyl-2H-tetrazolium bromide (MTT) was added to each of the treatment wells. The cells were incubated for a further 3 hours at 37° C. (5% CO2) before all the supernatant was removed from the cells and the insoluble MTT formazan dye, produced by the reduction of MIT by viable cells, was solubilised in 200 μl dimethyl sulfoxide (DMSO). The absorbance of the resulting solution was measured at 540 nm and was proportional to the number of viable […] cells remaining after the tBHP challenge. DMEM is the control viability of cells without peroxide or tBHP.

[2] = system: mouse embryonic stem cell line E14Tg2a; assay: tert-butyl hydroperoxide (tBHP) challenge of mES cells, MTT viability assay; type: cell-based
Method: The mouse embryonic stem cell line E14Tg2a was maintained in a pluripotent state in knockout (KO) DMEM supplemented with leukaemia inhibitory factor (LIF), 15% (v/v) knockout serum replacement, 0.1 mM MEM non-essential amino acids, 2 mM 1-glutamine and 140 μM 2-mercaptoethanol in tissue culture flasks coated with 0.1% (w/v) gelatin.
as §1, with “mES cells were” for “MIN-6 cells were”, “into a 0.1% (w/v) gelatin coated 96-well tissue” for “into a 96-well tissue”, “density of 1.5×10^4 cells per” for “density of 2.0×10^4 cells per”, “tBHP for 90 minutes at” for “tBHP for 30 minutes at”, “reduction of MTT by viable” for “reduction of MIT by viable”, “tBHP challenge.” for “tBHP challenge. DMEM is the control viability of cells without peroxide or tBHP.”
mES cells were plated into a 0.1% (w/v) gelatin coated 96-well tissue culture plate at a density of 7.5×10^3 cells per well. The cells were cultured at 37° C. in an atmosphere of 5% CO2 for 20-24 hours before the addition of AO3003, 20 hours prior to the onset of the tert-butyl hydroperoxide (tBHP) challenge. The cells were incubated with tBHP for 90 minutes at 37° C. (5% CO2) before 20 μl 5 mg/ml 3-(4,5-Dimethyl-2-thiazolyl)-2,5-diphenyl-2H-tetrazolium bromide (MTT) was added to each of the treatment wells. The cells were incubated for a further 3 hours at 37° C. (5% CO2) before all the supernatant was removed from the cells and the insoluble MIT formazan dye, produced by the reduction of MTT by viable cells, was solubilised in 200 μl dimethyl sulfoxide (DMSO). The absorbance of the resulting solution was measured at 540 nm and was proportional to the number of viable mES cells remaining after the tBHP challenge.

O=c1c(O)c(-c2cc(O)c(O)c(O)c2)oc2cc(C3CCCCC3)ccc12 [AO3003]
protection against oxidative stress [1]: protects against oxidative stress
reversal of oxidative stress-induced loss of viability ([2]; 2 μM, compound added 20 hours prior to tBHP challenge, MTT, FIG. 2): significantly reverses oxidative stress-induced loss of viability
toxicity (control cell viability without tBHP) ([2]; cell viability at 24 h after 0, 1 and 2 μM exposure): not toxic
period the compound remains bioprotective once incorporated into the cell ([2]; mES cells, tBHP challenge, Experiment 2): > 24 h
protection against oxidative stress ([2]; mouse embryonic stem cell line, tBHP, summary of Experiments 1 and 2): protects against oxidative stress
